Assay results from PubChem BioAssay (NCI).
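96-well plates; 48 h exposure; 5 concentrations. Endpoints by linear interpolation between flanking doses. Not reached: highest tested concentration assigned. Definition used: TGI = concentration required for complete inhibition of growth.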

Key:
Assay in all cases: growth of human tumour cells (NCI), 48 h
786-0 renal = system: 786-0 renal
A549 NSCLC = system: A549 NSCLC
ACHN renal = system: ACHN renal
CAKI-1 renal = system: CAKI-1 renal
CCRF-CEM leukemia = system: CCRF-CEM leukemia
COLO 205 colon = system: COLO 205 colon
DU-145 prostate = system: DU-145 prostate
EKVX NSCLC = system: EKVX NSCLC
HCC-2998 colon = system: HCC-2998 colon
HCT-116 colon = system: HCT-116 colon
HCT-15 colon = system: HCT-15 colon
HL-60(TB) leukemia = system: HL-60(TB) leukemia
HOP-62 NSCLC = system: HOP-62 NSCLC
HOP-92 NSCLC = system: HOP-92 NSCLC
HS 578T breast = system: HS 578T breast
HT29 colon = system: HT29 colon
IGROV1 ovarian = system: IGROV1 ovarian
K-562 leukemia = system: K-562 leukemia
KM12 colon = system: KM12 colon
LOX IMVI melanoma = system: LOX IMVI melanoma
M14 melanoma = system: M14 melanoma
MALME-3M melanoma = system: MALME-3M melanoma
MCF7 breast = system: MCF7 breast
MDA-MB-231 breast = system: MDA-MB-231 breast
MDA-MB-435 = system: MDA-MB-435
MDA-N = system: MDA-N
MOLT-4 leukemia = system: MOLT-4 leukemia
NCI-H226 lung = system: NCI-H226 lung
NCI-H23 lung = system: NCI-H23 lung
NCI-H460 lung = system: NCI-H460 lung
NCI/ADR-RES ovarian = system: NCI/ADR-RES ovarian
OVCAR-3 ovarian = system: OVCAR-3 ovarian
OVCAR-4 ovarian = system: OVCAR-4 ovarian
OVCAR-5 ovarian = system: OVCAR-5 ovarian
OVCAR-8 ovarian = system: OVCAR-8 ovarian
PC-3 prostate = system: PC-3 prostate
RPMI-8226 leukemia = system: RPMI-8226 leukemia
RXF 393 renal = system: RXF 393 renal
SF-268 CNS = system: SF-268 CNS
SF-295 CNS = system: SF-295 CNS
SF-539 CNS = system: SF-539 CNS
SK-MEL-2 melanoma = system: SK-MEL-2 melanoma
SK-MEL-28 melanoma = system: SK-MEL-28 melanoma
SK-MEL-5 melanoma = system: SK-MEL-5 melanoma
SK-OV-3 ovarian = system: SK-OV-3 ovarian
SN12C renal = system: SN12C renal
SNB-19 CNS = system: SNB-19 CNS
SNB-75 CNS = system: SNB-75 CNS
SR leukemia = system: SR leukemia
SW-620 colon = system: SW-620 colon
T-47D breast = system: T-47D breast
TK-10 renal = system: TK-10 renal
U251 CNS = system: U251 CNS
UACC-257 melanoma = system: UACC-257 melanoma
UACC-62 melanoma = system: UACC-62 melanoma
UO-31 renal = system: UO-31 renal
A498 renal = system: A498 renal
BT-549 breast = system: BT-549 breast
NCI-H522 lung = system: NCI-H522 lung

Measured: TGI

CC(=O)c1ccc(N=Nc2ccc3nonc3c2N)cc1
> 100 µM: 786-0 renal | A549 NSCLC | ACHN renal | CAKI-1 renal | CCRF-CEM leukemia | COLO 205 colon | DU-145 prostate | EKVX NSCLC | HCC-2998 colon | HCT-116 colon | HCT-15 colon | HL-60(TB) leukemia | HOP-62 NSCLC | HOP-92 NSCLC | HS 578T breast | HT29 colon | IGROV1 ovarian | K-562 leukemia | KM12 colon | LOX IMVI melanoma | M14 melanoma | MALME-3M melanoma | MCF7 breast | MDA-MB-231 breast | MDA-MB-435 | MDA-N | MOLT-4 leukemia | NCI-H226 lung | NCI-H23 lung | NCI-H460 lung | NCI/ADR-RES ovarian | OVCAR-3 ovarian | OVCAR-4 ovarian | OVCAR-5 ovarian | OVCAR-8 ovarian | PC-3 prostate | RPMI-8226 leukemia | RXF 393 renal | SF-268 CNS | SF-295 CNS | SF-539 CNS | SK-MEL-2 melanoma | SK-MEL-28 melanoma | SK-MEL-5 melanoma | SK-OV-3 ovarian | SN12C renal | SNB-19 CNS | SNB-75 CNS | SR leukemia | SW-620 colon | T-47D breast | TK-10 renal | U251 CNS | UACC-257 melanoma | UACC-62 melanoma | UO-31 renal

CC(=O)NCCCCNCCCNC(C)=O
> 100 µM: 786-0 renal | A498 renal | A549 NSCLC | ACHN renal | BT-549 breast | CAKI-1 renal | CCRF-CEM leukemia | COLO 205 colon | DU-145 prostate | EKVX NSCLC | HCC-2998 colon | HCT-116 colon | HCT-15 colon | HL-60(TB) leukemia | HOP-92 NSCLC | HS 578T breast | HT29 colon | IGROV1 ovarian | K-562 leukemia | KM12 colon | LOX IMVI melanoma | M14 melanoma | MALME-3M melanoma | MCF7 breast | MDA-MB-231 breast | MDA-MB-435 | MDA-N | MOLT-4 leukemia | NCI-H226 lung | NCI-H23 lung | NCI-H460 lung | NCI-H522 lung | NCI/ADR-RES ovarian | OVCAR-4 ovarian | OVCAR-5 ovarian | OVCAR-8 ovarian | RPMI-8226 leukemia | RXF 393 renal | SF-268 CNS | SF-295 CNS | SF-539 CNS | SK-MEL-28 melanoma | SK-MEL-5 melanoma | SK-OV-3 ovarian | SN12C renal | SNB-19 CNS | SNB-75 CNS | SW-620 colon | T-47D breast | TK-10 renal | U251 CNS | UACC-257 melanoma | UACC-62 melanoma | UO-31 renal
